Laboratory results taken from US12077508B2, “Inhibitors of the Notch transcriptional activation complex kinase (“NACK”) and methods for use of the same” (UNIVERSITY OF MIAMI, priority 2018, dated 2024).
Read-outs that look alike come from different tables or passages of the source.

Key:
[1] = tested on: OE33 cell line; experiment: Colony formation assay in OE33 cells; type: cell-based, human; conditions: for EC50: Homo sapiens, read-out: EC50 colony formation titration assay
Method: A cell based colony formation assay was used in these experiments. Normal mouse mammary epithelia HC11 cells have little or no endogenous NACK expression, and NACK knockdown had no effect on the growth of HC11 cells (FIG. 5A, lower panel). […] Knockdown of NACK was confirmed by western blot and qPCR (FIGS. 1D and 1E). […] Therefore, compounds that affect OE33 colony formation but not HC11 were desired. In order to screen the compounds, cells were treated with test compounds every other day.
Colony formation assay was utilized to determine the effect of small molecule inhibitors on cell proliferation. In general, different cell lines (NACK dependent or independent) will be seeded in 6-well plates at a density of 2000 cells per well and allowed to attach overnight. Inhibitor treatment commenced 24 hours post seeding, and the media containing inhibitor was changed every 48 hours thereafter. After 168 hours, colonies were be stained with Crystal Violet (Millipore) and counted.

[2] = tested on: Notch target genes; experiment: RT-qPCR of Notch target genes in Notch/NACK-dependent cells; type: cell-based, human; conditions: OE33; FIG. 6B
Method: To assess the effect of NACK inhibitor on Notch target gene transcription, Notch/NACK-dependent cell lines were treated with NACK inhibitors. The cells were also treated with DAPT as a positive control. DMSO treated cells served as a vehicle control for comparison. Gene expression was normalized to HPRT, and TBP served as a negative control to validate normalization.
Reverse transcription and qPCR analysis were performed as described previously (See Weaver et al., Cancer Research 74, 4741-4751 (2014)). Gene expression was normalized to the TATA-binding protein (“TBP”) gene. As a control, hypoxanthine phosphoribosyltransferase 1 (“HPRT”) gene expression was also monitored.

[3] = tested on: HC11/N1ICD spheres; experiment: Tumor sphere formation assay in HC11/N1ICD; type: cell-based, mouse
From the text: To further explore the effect of NACK inhibitors targeting Notch pathway, ectopic expression of Notch in HC11 mammary epithelial cells was constructed, as HC11 cells have little to no endogenous Notch activity. Moreover, HC11 cells are insensitive to either DAPT or Z271-0326 treatment as shown in previous colony formation assay (FIG. 5B). See Weaver et al., Cancer Research 74, 4741-4751 (2014). […] Therefore, transformation of HC11 cells by Notch now renders these cells dependent on Notch activity and sensitive to inhibition of NACK by Z271-0326.
In order to assess the effect of hit to lead compounds on the proliferation of stem cell like population of Notch/NACK dependent cells, the primary tumor spheres were treated with NACK inhibitor and allow the cells to be propagated as secondary cultures. To obtain tumor spheres, cells were cultured in DMEM/F12 with 2% B-27 serum-free supplement (17604-044; Invitrogen), 20 ng/mL epidermal growth factor (EGF; PHG0311L; Invitrogen), and 20 ng/mL basic fibroblastic growth factor (bFGF; PHG0266; Invitrogen) for 14 days. Resulting tumor spheres were examined and counted under the microscope. Furthermore, the tumor spheres were collected for further RT-qPCR analysis to test the effect of hit to lead compounds on the stem like target genes.

[4] = tested on: HES1 promoter; experiment: Chromatin immunoprecipitation (ChIP) at the HES1 promoter in OE33; type: cell-based, human; conditions: FIG. 8C
Method: Notch/NACK-dependent cells were treated with either DAPT as a positive control, DMSO (vehicle) as a negative control, or compounds for screening for 24 hours. After treatment, cells were cross-linked and sonicated to yield chromatin fragments of approximately 500 bp, as previously described (See Weaver et al., Cancer Research 74, 4741-4751 (2014)). Lysates were immunoprecipitated with either α-Notch1 (Bethyl Laboratories, Montgomery, TX; A301-894A), α-Maml1 (Cell Signaling, 12166s), α-NACK (Bethyl Laboratories, A302-675A), or α-PoIII pSer5 (Abcam, ab5131) antibodies. DNA immunoprecipitates were cleaned using the PCR purification Kit (Qiagen). DNA were detected by Syber green qPCR using HES1 specific oligonucleotide primers (forward: 5′CGTGTCTCCTCCTCCCATT3′ (SEQ ID NO: 2); reverse: 5′GGGGGATTCCGCTGTTAT3′ (SEQ ID NO:3)).

[5] = tested on: OE33 cells; experiment: Cell apoptosis assay (Annexin V/PI flow cytometry); type: cell-based, human; conditions: day 7 of treatment, FIG. 9A
Method: To investigate how Z271-0326 inhibits cell growth in EAC cell lines, the effect of Z271-0326 treatment was evaluated on apoptosis. OE33 was treated either with the GSI DAPT or Z271-0326 every other day, and their effects on apoptosis were analyzed. On day 7 of treatment, cell apoptosis was analyzed using FITC Annexin V/Dead Cell Apoptosis Kit with FIFC annexin V and PI for flow cytometry (Invitrogen, V13242).

[6] = Plasma pharmacokinetics; type: in vivo, male C57 BL/6 mice; conditions: for Tmax: ip
From the text: The plasma pharmacokinetic profile of Z271-0326 was investigated following a single intravenous and intraperitoneal dose administration in male C57 BL/6 mice (FIG. 12). […] The Vss was similar to the normal volume of total body water (0.7 L/kg). The Vss is a pharmacokinetic parameter, which represents the volume distribution of a drug in the body tissue. […] This dose was MTD for the 4-week efficacy studies shown in preliminary data.
The plasma pharmacokinetic profile of Z271-0326 was investigated following a single intravenous and intraperitoneal dose administration in male C57 BL/6 mice.

[7] = biological target: TNIK (Homo sapiens, UniProt Q9UKE5); experiment: ADP-Glo TNIK kinase assay; type: biochemical; conditions: FIG. 17C
Chain of TNIK (Q9UKE5 whole entry, species assumed): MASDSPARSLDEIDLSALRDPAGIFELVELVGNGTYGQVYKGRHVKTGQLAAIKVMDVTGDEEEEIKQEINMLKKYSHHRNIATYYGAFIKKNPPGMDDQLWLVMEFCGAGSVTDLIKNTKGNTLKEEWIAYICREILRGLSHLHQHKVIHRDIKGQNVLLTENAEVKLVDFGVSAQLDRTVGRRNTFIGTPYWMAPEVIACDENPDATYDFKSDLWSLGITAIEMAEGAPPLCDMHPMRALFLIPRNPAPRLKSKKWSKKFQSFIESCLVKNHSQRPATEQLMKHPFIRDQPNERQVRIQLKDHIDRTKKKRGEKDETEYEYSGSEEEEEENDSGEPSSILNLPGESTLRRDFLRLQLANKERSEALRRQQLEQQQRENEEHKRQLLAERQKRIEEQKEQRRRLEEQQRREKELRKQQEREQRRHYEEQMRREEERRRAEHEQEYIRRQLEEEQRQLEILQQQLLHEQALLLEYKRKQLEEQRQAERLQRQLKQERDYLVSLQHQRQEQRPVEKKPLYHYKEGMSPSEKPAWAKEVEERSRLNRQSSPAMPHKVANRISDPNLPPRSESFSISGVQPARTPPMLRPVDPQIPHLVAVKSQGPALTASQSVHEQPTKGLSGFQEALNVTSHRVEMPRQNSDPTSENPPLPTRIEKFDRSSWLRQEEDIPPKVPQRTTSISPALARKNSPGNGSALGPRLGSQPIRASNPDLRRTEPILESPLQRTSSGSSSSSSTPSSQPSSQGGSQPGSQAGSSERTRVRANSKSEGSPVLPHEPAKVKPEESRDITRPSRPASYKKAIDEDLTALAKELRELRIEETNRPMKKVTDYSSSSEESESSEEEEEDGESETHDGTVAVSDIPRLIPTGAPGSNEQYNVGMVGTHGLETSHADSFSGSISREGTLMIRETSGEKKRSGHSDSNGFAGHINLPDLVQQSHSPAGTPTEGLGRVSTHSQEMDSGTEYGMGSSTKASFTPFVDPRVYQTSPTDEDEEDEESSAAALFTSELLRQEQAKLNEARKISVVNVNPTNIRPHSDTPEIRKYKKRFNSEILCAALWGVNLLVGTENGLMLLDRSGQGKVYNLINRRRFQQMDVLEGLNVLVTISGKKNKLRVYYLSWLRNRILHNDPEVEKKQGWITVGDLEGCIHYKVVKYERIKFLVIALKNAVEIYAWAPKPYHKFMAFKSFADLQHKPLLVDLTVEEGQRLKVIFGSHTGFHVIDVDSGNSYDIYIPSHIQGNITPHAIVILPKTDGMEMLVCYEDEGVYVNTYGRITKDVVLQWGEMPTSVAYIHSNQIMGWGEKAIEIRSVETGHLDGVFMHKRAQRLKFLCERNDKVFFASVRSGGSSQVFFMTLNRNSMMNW
Method: ADP-Glo kinase assay was performed using ADP-Glo™ Kinase Assay (Promega, V6930) according to the manufacture recommended protocol.

[8] = Maximum tolerated dose in efficacy studies; conditions: mouse, in vivo, ip, 25 mg/kg; 4-week efficacy studies; intraperitoneal
[9] = tested on: esophageal adenocarcinoma (EAC) PDX
Method: Two EAC PDX models were constructed (EAC47 and EAC36) from patient tumor samples. Mice harboring established tumors (approx. 200 mm^3) were treated with either DAPT (20 mg/kg) or Z271-0326 (25 mg/kg) daily via intraperitoneal injections.
When the tumor size reaches 200 mm^3, the corresponding groups were either treated with vehicle (DMSO) or lead compound by IP injection daily.

CCN(CC)C(=O)c1cnn2ccc(C3CCN(S(=O)(=O)c4ccc(NC(C)=O)cc4)CC3)cc12 [Compound Z271-0326, 5-(1-((4-acetamidophenyl)sulfonyl)piperidin-4-yl)-N,N-diethylpyrazolo[1,5-a]pyridine-3-carboxamide]
EC50 ([1]; OE33, OE33 cell line, FIG. 18): 1270 nM
EC50 ([1]; OE33, estimated, FIG. 6C): 1050 nM
OE33 colony formation ([1]; cells treated every other day, FIGS. 5B, 5C): effectively inhibit OE33 colony formation
mRNA levels of Notch target genes Hes1 and Notch3 [2]: decrease the mRNA levels of Notch target genes Hes1 and Notch3
HES1 and stem-cell marker gene expression (ALDH1A1, SNAIL1, TWIST1) ([3]; HC11/N1ICD spheres, FIG. 7D): causes a decrease in HES1 gene expression as well as several other stem-cell marker genes
secondary sphere formation ([3]; HC11/N1ICD, FIG. 7C): inhibits the ability of HC11/N1ICD spheres to form secondary spheres
binding of N1ICD and NACK to the HES1 promoter ([4]; 24 hours): abrogated the binding of N1ICD and NACK to the HES1 promoter
Pol II pSer5 initiation complex formation at the HES1 promoter [4]: decreases the RNA polymerase initiation complex (Pol II pSer5) formation at the HES1 promoter
increase in the percent of cells undergoing apoptosis compared to the control [5]: threefold
Tmax ([6]; male, C57BL/6, mouse, plasma, single intraperitoneal 25 mg/kg): 15 min
Tmax ([6]; male, C57BL/6, mouse, plasma, single intraperitoneal 100 mg/kg): 60 min
clearance ([6]; male, C57BL/6, mouse, plasma, single intravenous 5 mg/kg, read-out: systemic plasma clearance): 30 mL/min/kg
half-life ([6]; male, C57BL/6, mouse, plasma, single intravenous 5 mg/kg, read-out: terminal elimination half-life (converted)): 13.8 min
Vd ([6]; male, C57BL/6, mouse, plasma, single intravenous 5 mg/kg, similar to total body water, read-out: Vss): ~0.7 L/kg
time plasma concentrations quantifiable up to ([6]; single intraperitoneal 25 mg/kg): up to 4 hr
time plasma concentrations quantifiable up to ([6]; single intraperitoneal 100 mg/kg): up to 24 hr
TNIK kinase inhibition [7]: only meaningfully inhibits LCK out of the three kinases
MTD at 4 weeks [8]: 25 mg/kg
proliferation index (Ki67 staining) ([9]; Z271-0326 25 mg/kg daily i.p., vs control group, FIG. 11E): decrease in proliferation index
tumor growth ([9]; Z271-0326 25 mg/kg daily intraperitoneal, vs vehicle, FIGS. 11A-11C): significantly attenuated
